According to ChEMBL document CHEMBL5500327, “Targeting insulin-like growth factor 2 mRNA-binding proteins (IGF2BPs) for the treatment of cancer” (Eur J Med Chem, 2024):

Assays:
[1] = target: Insulin-like growth factor 2 mRNA-binding protein 2 (Homo sapiens, UniProt Q9Y6M1); assay: Binding affinity to Histidine-tagged IMP-2 (unknown origin) assessed as dissociation constant by fluorescence polarization assay
[2] = Cytotoxicity against human Huh-7 cells assessed as reduction in cell viability incubated for 24 hrs by MTT assay
[3] = target: T1, Insulin-like growth factor 2 mRNA-binding protein 1 (Homo sapiens, UniProt Q9NZI8); assay: Binding affinity to human recombinant IGF2BP1 assessed as dissociation constant by SPR analysis
THP-1 = assay: Antiproliferative activity against human THP-1 cells assessed as reduction in cell growth incubated for 24 hrs by MTT assay; details: THP-1, 24 h
[4] = Inhibition of full length IMP-1 (unknown origin) binding to fluorescein labeled 93 nucleotide c-Myc mRNA expressed in Escherichia coli BL21 (DE3) pLysS by FAMA method
HL-60 = assay: Antiproliferative activity against human HL-60 cells assessed as reduction in cell viability incubated for 24 hrs by MTT assay; details: HL-60, 24 h
K562 = assay: Antiproliferative activity against human K562 cells assessed as reduction in cell viability incubated for 24 hrs by MTT assay; details: K562, 24 h
NCI-H1299 = assay: Antiproliferative activity against human NCI-H1299 cells assessed as reduction in cell growth incubated for 24 hrs by MTT assay; details: NCI-H1299, 24 h
[5] = target: T1, Insulin-like growth factor 2 mRNA-binding protein 1; assay: Binding affinity to IGF2BP1 (unknown origin) assessed as dissociation constant by MST assay
[6] = target: T1, Insulin-like growth factor 2 mRNA-binding protein 1; assay: Inhibition of full length recombinant IGF2BP1 (unknown origin) by fluorescence polarization assay

Insulin-like growth factor 2 mRNA-binding protein 2, sequence (Q9Y6M1 whole entry): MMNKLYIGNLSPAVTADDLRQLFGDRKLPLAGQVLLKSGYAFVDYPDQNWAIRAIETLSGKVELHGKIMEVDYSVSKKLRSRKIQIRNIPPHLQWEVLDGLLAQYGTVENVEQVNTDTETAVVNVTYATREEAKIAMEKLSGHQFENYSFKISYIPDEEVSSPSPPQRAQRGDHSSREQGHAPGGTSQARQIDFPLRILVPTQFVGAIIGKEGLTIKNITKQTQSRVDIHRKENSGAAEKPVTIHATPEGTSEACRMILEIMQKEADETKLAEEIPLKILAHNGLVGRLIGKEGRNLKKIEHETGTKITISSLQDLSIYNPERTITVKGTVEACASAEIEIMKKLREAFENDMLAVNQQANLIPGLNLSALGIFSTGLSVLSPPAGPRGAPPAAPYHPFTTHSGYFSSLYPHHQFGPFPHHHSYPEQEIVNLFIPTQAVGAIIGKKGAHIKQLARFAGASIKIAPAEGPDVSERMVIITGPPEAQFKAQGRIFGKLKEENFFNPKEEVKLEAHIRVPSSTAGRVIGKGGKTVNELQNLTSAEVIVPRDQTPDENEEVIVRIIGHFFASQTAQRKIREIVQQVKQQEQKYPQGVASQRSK
T1 sequence (Q9NZI8 whole entry): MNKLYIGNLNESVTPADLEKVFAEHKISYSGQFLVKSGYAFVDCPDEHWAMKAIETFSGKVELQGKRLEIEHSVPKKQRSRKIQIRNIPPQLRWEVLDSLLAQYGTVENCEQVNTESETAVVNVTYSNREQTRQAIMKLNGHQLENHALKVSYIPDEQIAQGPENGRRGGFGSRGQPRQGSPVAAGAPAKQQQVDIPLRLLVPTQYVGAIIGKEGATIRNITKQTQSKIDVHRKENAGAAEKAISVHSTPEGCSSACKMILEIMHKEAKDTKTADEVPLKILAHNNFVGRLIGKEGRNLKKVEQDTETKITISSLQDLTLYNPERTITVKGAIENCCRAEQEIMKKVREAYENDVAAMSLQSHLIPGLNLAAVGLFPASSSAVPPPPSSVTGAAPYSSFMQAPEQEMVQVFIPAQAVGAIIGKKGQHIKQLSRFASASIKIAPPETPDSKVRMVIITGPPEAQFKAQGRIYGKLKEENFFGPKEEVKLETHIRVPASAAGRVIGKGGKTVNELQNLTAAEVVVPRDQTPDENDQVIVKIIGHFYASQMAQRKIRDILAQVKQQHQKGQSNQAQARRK

`CCCN(CCc1ccccc1)C(=O)Nc1cc(-c2ccc(Cl)c(Cl)c2)sc1C(=O)O` gave an IC50 [1] of 65.3 µM.
Work on `CCN(Cc1ccccc1)C(=O)Nc1cc(-c2ccc(C(F)(F)F)cc2)sc1C(=O)O` yielded an IC50 [1] of 121 µM.
Work on `O=C(Nc1ccc(OC(F)(F)F)cc1C(=O)O)c1ccc(-c2ccccc2)cc1` yielded an IC50 [1] of 81.3 µM.
In the case of `CC(=O)OC(C)(C)/C=C/C(=O)[C@](C)(O)[C@H]1[C@H](O)C[C@@]2(C)[C@@H]3CC=C4[C@@H](C[C@H](O)C(=O)C4(C)C)[C@]3(C)C(=O)C[C@]12C`, the IC50 at 24 h [2] is reported as 4.1 µM and the Kd [3] is reported as 1.2 µM.
Molecule `Oc1ccc(Cl)cc1/C=N\N/C(=N/N=C/c1cc(Cl)ccc1O)N/N=C/c1cc(Cl)ccc1O` has an IC50 (THP-1) of 0.2 µM.
Work on `NC(=O)c1ccccc1/N=C/c1ccc(Br)s1` yielded an IC50 [4] of 5 µM, an IC50 (HL-60) of 21.6 µM and an IC50 (K562) of 6.76 µM.
Work on `O=C(c1ccc(Cn2cc(CO)c3ccccc32)cc1)N1CCN(c2ccc3c(c2)OCO3)CC1` yielded an IC50 (NCI-H1299) of 0.8 µM and a Kd [5] of 1.4 µM.
In the case of `O=C(c1ccc(-n2cnnn2)cc1)N1CCCC(Nc2ccc3c(c2)OCO3)C1` (configuration not stated), the IC50 [6] is reported as 91.1 µM.
